For assay [1], the target named is NR1/NR2B (Homo sapiens (Human), UniProt Q05586+Q13224). The experiment in a line: Cell assay: FDSS Ca2+ influx inhibition in HEK293 cells expressing NR1/NR2B.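 Also: Fluo-8 Ca2+ signal read on Hamamatsu FDSS 6000 after glutamate, glycine and Ca2+ challenge following 10 min compound preincubation, end/baseline fluorescence ratio compared with MK801 control.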 The settings on record: Binned Activity, HEK293 cells expressing NR1/NR2B, Ca2+ influx; binned NR2B NAM IC50.
The target of assay [2] is NR1/NR2B (Homo sapiens (Human), UniProt Q13224). The assay is described as above. Particulars: read-out: NR2B NAM IC50; HEK293 cells expressing NR1/NR2B, Ca2+ influx.

We go through 16 compounds from patent US10052306B2 (LUC THERAPEUTICS, INC., priority 2013, dated 2018).

NR1/NR2B (Homo sapiens (Human), UniProt Q13224), sequence (Q13224 27-1484, other chains not shown): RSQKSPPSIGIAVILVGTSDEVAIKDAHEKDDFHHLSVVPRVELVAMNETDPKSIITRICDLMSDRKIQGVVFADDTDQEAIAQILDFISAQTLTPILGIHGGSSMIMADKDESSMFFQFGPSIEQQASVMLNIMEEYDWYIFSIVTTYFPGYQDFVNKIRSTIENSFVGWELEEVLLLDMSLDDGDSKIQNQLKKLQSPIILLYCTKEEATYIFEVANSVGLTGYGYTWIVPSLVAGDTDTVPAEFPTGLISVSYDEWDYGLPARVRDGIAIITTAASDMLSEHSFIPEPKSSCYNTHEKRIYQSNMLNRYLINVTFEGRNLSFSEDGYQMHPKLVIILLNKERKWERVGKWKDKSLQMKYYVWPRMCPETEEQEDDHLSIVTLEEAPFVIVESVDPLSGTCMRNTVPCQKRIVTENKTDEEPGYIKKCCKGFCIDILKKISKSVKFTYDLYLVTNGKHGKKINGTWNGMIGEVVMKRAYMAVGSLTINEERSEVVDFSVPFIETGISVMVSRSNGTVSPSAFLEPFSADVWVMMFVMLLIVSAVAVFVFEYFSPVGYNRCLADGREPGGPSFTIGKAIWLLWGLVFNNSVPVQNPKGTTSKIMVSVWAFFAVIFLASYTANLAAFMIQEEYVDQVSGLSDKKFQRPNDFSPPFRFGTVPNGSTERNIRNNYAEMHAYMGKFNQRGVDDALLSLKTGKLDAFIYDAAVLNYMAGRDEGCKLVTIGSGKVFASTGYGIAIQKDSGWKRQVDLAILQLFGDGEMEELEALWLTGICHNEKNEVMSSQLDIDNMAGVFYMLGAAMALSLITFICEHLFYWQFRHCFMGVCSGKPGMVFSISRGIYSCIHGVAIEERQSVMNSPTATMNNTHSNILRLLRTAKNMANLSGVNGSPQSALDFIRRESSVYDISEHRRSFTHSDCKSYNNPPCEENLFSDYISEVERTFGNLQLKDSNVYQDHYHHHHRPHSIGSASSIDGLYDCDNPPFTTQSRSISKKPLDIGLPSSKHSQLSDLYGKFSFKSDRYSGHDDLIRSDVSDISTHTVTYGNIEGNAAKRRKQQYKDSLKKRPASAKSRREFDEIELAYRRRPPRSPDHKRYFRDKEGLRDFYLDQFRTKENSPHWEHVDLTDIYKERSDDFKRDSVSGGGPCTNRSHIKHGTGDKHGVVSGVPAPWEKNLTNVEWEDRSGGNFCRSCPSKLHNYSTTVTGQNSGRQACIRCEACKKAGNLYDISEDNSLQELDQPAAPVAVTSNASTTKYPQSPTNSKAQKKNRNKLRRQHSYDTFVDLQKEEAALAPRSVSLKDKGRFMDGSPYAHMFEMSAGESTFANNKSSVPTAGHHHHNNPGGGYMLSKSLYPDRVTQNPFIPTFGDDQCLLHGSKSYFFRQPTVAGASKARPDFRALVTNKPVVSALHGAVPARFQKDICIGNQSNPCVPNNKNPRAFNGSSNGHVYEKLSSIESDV
NR1/NR2B (Homo sapiens (Human), UniProt Q05586+Q13224), sequence (Q13224 27-1484, other chains not shown): as above

The IC50 is the point on the concentration scale where inhibition reaches its midpoint. In the case of `O=C(CN1C[C@@H]2C[C@@](O)(Cc3ccncc3)C[C@@H]2C1)c1ccc(O)cc1` [Example 226, 2-((3aR,5r,6aS)-5-hydroxy-5-(pyridin-4-ylmethyl)hexahydrocyclo-penta[c]pyrrol-2(1H)-yl)-1-(4-hydroxyphenyl)ethanone], the values for the IC50 in assay [1] and in assay [2] were 1 to 10 µM and 3.89 µM, respectively.
Taken in the same sequence, the figures for `O=C(CN1C[C@H]2CC(Cc3ccccc3)C[C@H]2C1)c1ccc(O)cc1` (stereo partly drawn) [Example 295, 2-((3aR,6aS)-5-benzylhexahydrocyclo-penta[c]pyrrol-2(1H)-yl)-1-(4-hydroxyphenyl)ethanone] were under 0.1 µM and 0.0517 µM.
Taken in the same sequence, the figures for `Cc1ccc(NC(=O)N2C[C@H]3C[C@@H](c4ccccc4)C[C@H]3C2)c(C)c1` [Example 110, N-(2,4-dimethylphenyl)-5-phenyl-octahydrocyclopenta[c] pyrrole-2-carboxamide] were over 10 µM and 10 µM.
For the compound `O=C(Nc1ccccc1)N1C[C@@H]2C[C@@](O)(c3ccccc3)C[C@@H]2C1` [Example 25, 5-hydroxy-N,5-diphenyl-octahydrocyclopenta[c] pyrrole-2-carboxamide], the IC50 in assay [1] was over 10 µM; in assay [2], 10 µM.
Taken in the same sequence, the figures for `Cc1ccccc1[C@]1(O)C[C@H]2CN(c3cccc(C(F)(F)F)n3)C[C@H]2C1` [Example 84, 5-(2-methylphenyl)-2-[6-(trifluoromethyl)pyridin-2-yl]-octahydrocyclopenta[c] pyrrol-5-ol] were over 10 µM and 10 µM.
Take `Cc1cc(F)ccc1C[C@]1(O)C[C@H]2CN(CC(=O)c3ccc(O)cn3)C[C@H]2C1` [Example 242, 2-((3aR,5r,6aS)-5-(4-fluoro-2-methylbenzyl)-5-hydroxyhexahydrocyclo-penta[c]pyrrol-2(1H)-yl)-1-(5-hydroxypyridin-2-yl)ethanone]: the IC50 in assay [1] was 1 to 10 µM; in assay [2], 2.71 µM.
For the compound `O=C(CN1C[C@@H]2C[C@@](O)(CC3CCCCC3)C[C@@H]2C1)c1ccc(O)cc1` [Example 205, 2-[(3aR,5R,6aS)-5-(cyclohexylmethyl)-5-hydroxy-octahydrocyclopenta[c]pyrrol-2-yl]-1-(4-hydroxyphenyl)ethan-1-one], the IC50 in assay [1] was 0.1 to 1 µM; in assay [2], 0.346 µM.
Taken in the same sequence, the figures for `O=C(COc1ccc(C(=O)CN2C[C@@H]3C[C@@](O)(Cc4ccc(F)cc4)C[C@@H]3C2)cc1F)c1ccc(O)c(F)c1` [Example 173, 2-(2-fluoro-4-(2-((3aR,5r,6aS)-5-(4-fluorobenzyl)-5-hydroxyhexahydrocyclo-penta[c]pyrrol-2(1H)-yl)acetyl)phenoxy)-1-(3-fluoro-4-hydroxyphenyl)ethanone] were over 10 µM and 10 µM.
For the compound `O=C(CN1C[C@@H]2C[C@@](O)(Cc3ccccc3)C[C@@H]2C1)c1ncc(O)cn1` [Example 202, 2-[(3aR,5R,6aS)-5-benzyl-5-hydroxy-octahydrocyclopenta[c]pyrrol-2-yl]-1-(5-hydroxypyrimidin-2-yl)ethan-1-one], the figures for the IC50 in assay [1] and in assay [2] were over 10 µM and 10 µM, respectively.
Taken in the same sequence, the figures for `Oc1ccc([C@@H](O)CN2C[C@@H]3C[C@](F)(Cc4ccccc4)C[C@@H]3C2)cc1` [Example 314, 4-((R)-2-((3aR,5S,6aS)-5-benzyl-5-fluoro-hexahydrocyclopen-ta[c]pyrrol-2(1H)-yl)-1-hydroxyethyl)phenol] were 0.1 to 1 µM and 0.414 µM.
Taken in the same sequence, the figures for `COc1ccc(NC(=O)N2C[C@@H]3C[C@@](O)(c4ccc(C#N)cc4)C[C@@H]3C2)cc1` [Example 2, 5-(4-cyanophenyl)-5-hydroxy-N-(4-methoxyphenyl)-octahydrocyclopenta[c] pyrrole-2-carboxamide] were over 10 µM and 10 µM.
`O=C(CN1C[C@@H]2C[C@@](O)(Cc3ccccn3)C[C@@H]2C1)c1ccc(O)cc1` [Example 231, 2-((3aR,5r,6aS)-5-hydroxy-5-(pyridin-2-ylmethyl)hexahydro-cyclopenta[c]pyrrol-2(1H)-yl)-1-(4-hydroxyphenyl)ethanone]: the results for the IC50 in assay [1] and in assay [2] were 0.1 to 1 µM and 0.965 µM, respectively.
As for `O=C(CN1C[C@@H]2C[C@@](O)(Cc3ccccc3)C[C@@H]2C1)c1cccc(-c2cccc(F)c2)c1` [Example 271, 2-((3aR,5r,6aS)-5-benzyl-5-hydroxyhexahydrocyclo-penta[c]pyrrol-2(1H)-yl)-1-(3′-fluoro-[1,1′-biphenyl]-3-yl)ethanone], the IC50 in assay [1] is over 10 µM; in assay [2], 10 µM.
For `Cc1cccc(-c2ccc(C(=O)CN3C[C@@H]4C[C@@](O)(Cc5ccccc5)C[C@@H]4C3)cc2)c1` [Example 264, 2-((3aR,5r,6aS)-5-benzyl-5-hydroxyhexahydrocyclo-penta[c]pyrrol-2(1H)-yl)-1-(3′-methyl-[1,1′-biphenyl]-4-yl)ethanone], in that order: over 10 µM and 10 µM.
On to `O=C(Nc1cccc(Cl)c1)N1C[C@@H]2C[C@@](O)(c3ccccc3)C[C@@H]2C1` [Example 4, N-(3-chlorophenyl)-5-hydroxy-5-phenyl-octahydrocyclopenta[c] pyrrole-2-carboxamide], for which the IC50 is over 10 µM in assay [1] and 10 µM in assay [2].
With `Oc1ccc([C@H](O)CN2C[C@@H]3C[C@@](O)(Cc4ccccc4)C[C@@H]3C2)cc1` [Example 137, (3aR,5S,6aS)-5-benzyl-2-((S)-2-hydroxy-2-(4-hydroxyphenyl)ethyl)octa-hydrocyclopenta[c]pyrrol-5-ol], the IC50 in assay [1] is under 0.1 µM; in assay [2] it was 0.0204 µM.
